# Assays:
# Type in all cases: cell-based, human
# [1] = tested on: PC3M cells; experiment: Soft agar colony formation assay (anchorage independent growth)
# Description: Compound 2 was tested for its ability to affect anchorage independent growth in a soft agar assay, a stringent method to detect malignant transformation of cells in vitro.
# [2] = tested on: PNC prevalence in PC3M cell line stably expressing GFP-PTB; experiment: High content assay for PNC detection (reduction of PNC prevalence); conditions: Table 4; PC3M GFP-PTB cells, 16 hrs
# Description: The quantitative output for this assay is the reduction of PNC prevalence. The PNC can be detected in living cells by the expression of a green fluorescent protein (GFP) tagged to the PNC localized protein, PTB. A PC3M cell line was used that stably expresses GFP-PTB to mark PNCs. This method eliminates the need for immunofluorescent staining.
# The IN Cell Analyzer 1000 automated fluorescent imaging system (GE Healthcare, Piscataway, N.J.) was used for automated image acquisition. […] The instrument acquired images of each well in a 1536-well plate with a laser-based autofocus system. To score PNC prevalence in a high-content throughput, the Multi-Target Analysis (MTA) algorithm (GE Healthcare, Investigator v3.5) to identify individual cells and granules (PNCs) within these cells was used. The nucleus was segmented via a region growing method (50 μm^2 minimum area) with light shading and noise removal to allow “touching” nuclei to be separated. […] For this particular assay, PNC-positive cells were scored when 1 to 3 PNC granules were detected per nucleus. Cells that contained 0 granules were scored as PNC negative, and cells with >3 granules were assumed to be false positives (very few cells have more than 3 PNCs in one focus plane), and were also scored as PNC negative.
# [3] = tested on: PC3M reporter cell line stably expressing PTB-GFP (ATP levels); experiment: ATP quantitation assay (ATPLite); conditions: Table 4, PC3M cells, 24 hrs
# Description: This follow-up assay was conducted to measure the effect of compounds on cell health by measuring ATP levels (ATPLite™). ATPLite™ is an ATP monitoring system based on firefly (Photinus pyralis) luciferase. The level of ATP in a metabolically active cell is a general marker for its viability. ATP levels are often reduced during necrosis or apoptosis. In this assay, the luciferase enzyme catalyzes the conversion of the added substrate D-luciferin to oxyluciferin and light with ATP. Thus, the emitted light is proportional to the ATP concentration. For this assay, the highly metastatic PC3M reporter cell line stably expressing the PTB-GFP was provided by Professor Sui Huang of Northwestern University. The media and cell culture reagents were purchased from Invitrogen (Carlsbad, Calif.), ATPLite™ came from PerkinElmer.
PNC IC50 [2],ATP IC50 [3],SMILES,"cell viability ([1]; soft agar assay, 3.8, 18.6 nM)","number of colonies (anchorage independent growth) ([1]; soft agar, after 14 days, 3.8, 18.6 nM)"
–,–,"N=c1c2c(-c3ccccc3)c(-c3ccccc3)n(Cc3ccccc3)c2ncn1[C@H]1CC[C@H](O)CC1 [Compound 2, trans-4-(7-Benzyl-4-imino-5,6-diphenyl-4,7-dihydro-3H-pyrrolo[2,3-d]pyrimidin-3-yl)cyclohexanol]",no impact on cell viability,dose dependent reduction in the number of colonies
inactive,inactive,COC(=O)C[C@H](C(=O)OC)n1ncc2c(c(-c3ccccc3)cn2Cc2ccc(Br)cc2)c1=N [Compound 114],–,–

# Source: patent publication US9877966B1, “Combination therapy for the inhibition of metastasis and tumorigenesis” (priority 2015, dated 2018)
